The record followed here is ChEMBL document CHEMBL1143092, “Identification of novel benzimidazole series of potent and selective ORL1 antagonists” (Bioorg Med Chem Lett, 2008).

Series [1] addresses T1, Nociceptin receptor (Homo sapiens, UniProt P41146). Nature of the series: Antagonist activity at human ORL1 receptor expressed in CHO cell membrane by [35S]GTP-gamma-S binding assay. The series is classed as functional, cell membranes. (GTPγS is a poorly hydrolysed GTP analogue; its binding reports G protein activation.)
In series [2] the target is T1, Nociceptin receptor. Kind of series: Displacement of [125I]Tyr14-NC from human ORL1 receptor expressed in CHO cell membrane. The series is classed as cell membranes. On the technique in general: Displacement assays read how much labelled ligand stays bound in the presence of the test substance.
Another series concerns the target Mu-type opioid receptor (Homo sapiens, UniProt P35372). Nature of the series: Displacement of [3H]diprenorphin from human cloned mu opioid receptor expressed in CHO cell membrane. The series is classed as cell membranes.
The target in series [3] is Kappa-type opioid receptor (Homo sapiens, UniProt P41145). Kind of series: Displacement of [3H]U-69593 from human cloned kappa opioid receptor expressed in CHO cell membrane. The series is classed as cell membranes.
Chain of Kappa-type opioid receptor (P41145 whole entry): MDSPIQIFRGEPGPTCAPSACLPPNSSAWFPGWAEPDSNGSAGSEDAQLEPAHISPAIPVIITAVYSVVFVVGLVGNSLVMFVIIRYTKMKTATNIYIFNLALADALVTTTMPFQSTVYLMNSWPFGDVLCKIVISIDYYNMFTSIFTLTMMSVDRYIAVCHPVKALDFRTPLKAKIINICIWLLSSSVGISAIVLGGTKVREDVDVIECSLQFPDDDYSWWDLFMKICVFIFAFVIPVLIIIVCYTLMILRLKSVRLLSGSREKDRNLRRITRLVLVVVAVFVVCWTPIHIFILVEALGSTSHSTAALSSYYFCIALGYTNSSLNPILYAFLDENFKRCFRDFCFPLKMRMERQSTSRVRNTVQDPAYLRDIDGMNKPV
A further series relates to Liver microsomes. Nature of the series: Metabolic stability in human liver microsomes. The series is classed as ADME, Microsome. A general note: Liver microsomes are vesicles of endoplasmic reticulum, rich in cytochrome P450 enzymes.
The target of series [4] is Delta-type opioid receptor (Homo sapiens, UniProt P41143). Kind of series: Displacement of [3H]naltrindole from human cloned delta opioid receptor expressed in CHO cell membrane. The series is classed as cell membranes.
Chain of Delta-type opioid receptor (P41143 whole entry): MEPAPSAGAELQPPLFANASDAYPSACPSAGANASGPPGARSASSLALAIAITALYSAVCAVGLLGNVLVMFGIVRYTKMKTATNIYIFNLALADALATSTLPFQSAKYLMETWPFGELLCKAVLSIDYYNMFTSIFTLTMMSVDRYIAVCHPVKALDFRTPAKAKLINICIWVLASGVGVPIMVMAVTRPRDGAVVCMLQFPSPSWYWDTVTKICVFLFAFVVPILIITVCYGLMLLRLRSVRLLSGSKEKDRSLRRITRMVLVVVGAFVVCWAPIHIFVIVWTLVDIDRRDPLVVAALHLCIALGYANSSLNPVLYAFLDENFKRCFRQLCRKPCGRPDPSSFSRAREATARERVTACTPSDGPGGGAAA

T1 sequence (P41146 whole entry): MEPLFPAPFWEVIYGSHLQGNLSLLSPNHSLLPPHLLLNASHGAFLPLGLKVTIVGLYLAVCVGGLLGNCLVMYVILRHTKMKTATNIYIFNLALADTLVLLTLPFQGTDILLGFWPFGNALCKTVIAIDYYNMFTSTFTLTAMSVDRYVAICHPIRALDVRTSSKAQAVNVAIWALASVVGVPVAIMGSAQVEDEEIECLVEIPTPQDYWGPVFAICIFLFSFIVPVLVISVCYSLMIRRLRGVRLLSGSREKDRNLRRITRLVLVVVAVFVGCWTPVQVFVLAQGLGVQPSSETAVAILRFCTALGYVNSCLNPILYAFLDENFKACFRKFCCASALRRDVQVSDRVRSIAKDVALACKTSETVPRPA
Chain of Mu-type opioid receptor (P35372 whole entry): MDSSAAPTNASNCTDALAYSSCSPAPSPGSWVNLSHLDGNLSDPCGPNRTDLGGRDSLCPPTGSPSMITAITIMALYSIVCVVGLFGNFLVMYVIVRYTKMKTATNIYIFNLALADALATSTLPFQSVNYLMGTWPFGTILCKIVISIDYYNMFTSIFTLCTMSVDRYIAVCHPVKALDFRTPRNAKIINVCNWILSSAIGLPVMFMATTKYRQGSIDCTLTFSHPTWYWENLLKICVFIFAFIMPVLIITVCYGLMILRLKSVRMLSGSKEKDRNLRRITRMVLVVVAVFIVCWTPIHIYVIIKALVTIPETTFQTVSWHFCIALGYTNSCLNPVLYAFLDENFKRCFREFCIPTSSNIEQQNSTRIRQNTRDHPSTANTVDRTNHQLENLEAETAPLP

In the case of `CCC(CC)Sc1nc2cc(C#N)c(N3CCNCC3)cc2[nH]1`, the IC50 on Nociceptin receptor [1] came to 78 nM; on Nociceptin receptor [2], 15 nM.
The molecule `CN1CCN(c2cc3[nH]c(SCc4ccc(F)cc4)nc3cc2F)CC1` registered an IC50 at Nociceptin receptor [2] of 910 nM.
Same read-out and setting: under `Fc1ccc(CSc2nc3cc(F)c(N4CCNCC4)cc3[nH]2)cc1` stands 63 nM; under `Fc1ccc(CSc2nc3cc(F)c(N4CCN(CC5CCCCCCC5)CC4)cc3[nH]2)cc1`, more than 10000 nM.
On to `CC(C)(C)Sc1nc2cc(Cl)c(N3CCN(CCO)CC3)cc2[nH]1`, for which the IC50 at Mu-type opioid receptor amounted to 4.4 µM; at Nociceptin receptor [1] it was 21 nM; in series [3] it was 120 nM; on Nociceptin receptor [2] it was 17 nM.
For the molecule `CCC(CC)Sc1nc2cc(F)c(N3CCNCC3)cc2[nH]1`, the IC50 at Nociceptin receptor [1] amounted to 690 nM; at Nociceptin receptor [2] it was 4.7 nM.
`Cc1cccc(CSc2nc3cc(F)c(N4CCNCC4)cc3[nH]2)c1` had an IC50 on Nociceptin receptor [2] of 180 nM.
Regarding `Fc1cc2nc(SCc3cccc(Cl)c3Cl)[nH]c2cc1N1CCNCC1`, the results for the IC50 at Nociceptin receptor [1] and at Nociceptin receptor [2] were 140 nM and 6 nM, respectively.
`Fc1cc2nc(SCc3ccccc3Cl)[nH]c2cc1N1CCNCC1`: the IC50 on Nociceptin receptor [1] amounted to 380 nM; on Nociceptin receptor [2], 23 nM.
The corresponding values for `Fc1cc2nc(SCc3c(Cl)cccc3Cl)[nH]c2cc1N1CCNCC1` are 2700 nM and 55 nM.
`CCC(CC)Sc1nc2ccc(N3CCNCC3)cc2[nH]1` showed an IC50 at Nociceptin receptor [2] of 320 nM.
In the case of `Fc1cc2nc(SCC3CCCCC3)[nH]c2cc1N1CCNCC1`, the IC50 at Nociceptin receptor [1] was determined as 930 nM; on Nociceptin receptor [2] it was 17 nM.
Consider `CCC(CC)Sc1nc2cc(Cl)c(N3CCN(CC)CC3)cc2[nH]1`, for which the IC50 on Nociceptin receptor [1] was 3.9 nM; at Nociceptin receptor [2], 10 nM. The molecule further returned a Stability with Liver microsomes of 31%.
For the molecule `CC(C)Sc1nc2cc(Cl)c(N3CCN(CCO)CC3)cc2[nH]1`, the IC50 at Mu-type opioid receptor came out at 3.1 µM; in series [3], 60 nM; at Nociceptin receptor [2], 120 nM.
On to `CC1(Sc2nc3cc(Cl)c(N4CCN(CCO)CC4)cc3[nH]2)CCCCC1`, for which the IC50 was determined as 1.4 µM on Mu-type opioid receptor, 1.8 nM at Nociceptin receptor [1], 88 nM in series [3] and 1.8 nM on Nociceptin receptor [2].
For `CCC(C)(CC)Sc1nc2cc(Cl)c(N3CCN(CCO)CC3)cc2[nH]1`, the IC50 was 2.8 µM at Mu-type opioid receptor; 0.66 nM at Nociceptin receptor [1]; 170 nM in series [3]; more than 1000 nM in series [4]; 1.2 nM on Nociceptin receptor [2].
As for `CCC(C)(C)Sc1nc2cc(Cl)c(N3CCN(CCO)CC3)cc2[nH]1`, the IC50 amounted to 3.5 µM on Mu-type opioid receptor, 2.5 nM at Nociceptin receptor [1], 160 nM in series [3] and 5.6 nM at Nociceptin receptor [2].
In turn, `Fc1cc2nc(SCc3ccccc3)[nH]c2cc1N1CCNCC1` registered an IC50 on Nociceptin receptor [2] of 140 nM.
In the case of `Cc1ccccc1CSc1nc2cc(F)c(N3CCNCC3)cc2[nH]1`, the IC50 on Nociceptin receptor [1] amounted to 1700 nM; on Nociceptin receptor [2], 78 nM.
On to `O=S(=O)(Cc1cccc(Cl)c1Cl)c1nc2cc(F)c(N3CCNCC3)cc2[nH]1`, for which the IC50 on Nociceptin receptor [2] came out at 240 nM.
Turning to `CCC(CC)Sc1nc2cc(Cl)c(N3CCN(CCO)CC3)cc2[nH]1`, the IC50 on Mu-type opioid receptor is 3.1 µM; on Nociceptin receptor [1] it was 3.3 nM; in series [3], 60 nM; in series [4], more than 1000 nM; on Nociceptin receptor [2], 9.7 nM. In addition, the Stability in the series on Liver microsomes came out at 51%.
The molecule `Cc1ccc(CSc2nc3cc(F)c(N4CCNCC4)cc3[nH]2)cc1` had an IC50 at Nociceptin receptor [2] of 31 nM.
Still for that read-out and setting: under `CCC(CC)Sc1nc2cc(C(C)=O)c(N3CCNCC3)cc2[nH]1` stands 3100 nM; under `CSc1nc2cc(F)c(N3CCNCC3)cc2[nH]1`, 2900 nM.
As for `OCCN1CCN(c2cc3[nH]c(SC4CCCCC4)nc3cc2Cl)CC1`, the IC50 is 0.52 µM on Mu-type opioid receptor, 20 nM on Nociceptin receptor [1], 31 nM in series [3] and 20 nM on Nociceptin receptor [2].
In turn, `[O-][S+](Cc1cccc(Cl)c1Cl)c1nc2cc(F)c(N3CCNCC3)cc2[nH]1` (centres undefined) gave an IC50 on Nociceptin receptor [2] of 2900 nM.
Take `Fc1ccc(CSc2nc3cc(F)c(N4CCN(Cc5ccccc5)CC4)cc3[nH]2)cc1`: the IC50 at Nociceptin receptor [2] was determined as 8200 nM.

As usually defined, the IC50 is the concentration needed to halve the response being measured. The low end stands for inhibition by little substance, the high end for a need for much substance.
